The values below come from US20180353429A1, “PRODUCT COMPRISING HYDROLIZED COLLAGEN AND AT LEAST ONE AMORPHOUS MICRONIZED DRUG, PROCESS FOR THE PREPARATION THEREOF AND RELATED USES IN MEDICAL FIELD” (S.B.M. S.r.l., priority 2015, published 2018).

What is called Cmax is the highest concentration seen after dosing.

The subject of data set [1] is gastric mucosa. The data set can be described thus: Gastroerosive activity of oral ASA on the gastric mucosa of Wistar rats (ulcer index, histopathology). The class given is in vivo. The settings on record: ASA 400 mg/Kg oral. On the procedure:
In view of this, it was decided to test the effect of the micronization of ASA (400 mg/Kg) and co-grinding thereof with collagen through oral administration on the mucosa of Wistar rats weighing 210 g and compare it with the effects of the administration of ASA (400 mg/Kg) in its non-micronized form.
In particular, a calculation was made of the effect of ASA on the so-called “ulcer score”, according to a method that differentiates the damage due to the acute administration of high doses of ASA given orally into classes of severity which range from the absence of lesions to the maximum score, which is equivalent to ulcers equal to or greater than 6 mm. Furthermore, an analysis was made of the effects of ASA, in the two formulations used, on the histopathological damage of the gastric mucosa after periodic acid Schiff/Alcian blue staining of the histological samples taken from the animals after the two treatments (FIG. 7).

Data set [2] is described as follows: Pharmacokinetics of ASA given orally or sublingually in healthy volunteers (plasma ASA by LC-MS). The class given is in vivo. The settings on record: human, tablet; for AUC(0-t): read-out: AUC (0-24 h). Here is the method: The pharmaceutical composition obtained by co-grinding a micronized drug with gelatine was tested in healthy volunteers in order to verify whether the product, in its amorphized form, brought advantages from the standpoint of bioavailability and an enhanced clinical effectiveness associated with an improvement in the safety profile. These tests confirmed that the co-grinding process and simultaneous amorphization of ASA with collagen enables a better absorption of the drug without compromising its effectiveness.
In particular, the administration of the pharmaceutical composition of ASA+collagen after co-grinding in tablet form at doses of 50 and 100 mg given sublingually and orally in groups of 20 healthy volunteers brought about an increase in the plasma concentrations of ASA, determined using the LC-MS method, compared to the administration of equivalent doses of ASA in crystalline form administered sublingually or orally.

The conditions of data set [3]: amorphized by co-grinding with β-cyclodextrin or other polymers; cited from earlier work.
In data set [4] the test system is thromboxane B2. In words: Plasma thromboxane B2 / urinary thromboxane metabolites after ASA in healthy volunteers. The class given is in vivo. Conditions: plasma and urine ASA and urinary thromboxane metabolites, 7 days. Here is the method: This effect was accompanied by a considerable therapeutic effectiveness, given that the plasma peak of thromboxane B2, a biomarker of the anti-aggregation effectiveness of ASA, came 1.5 hours earlier than with the crystalline form of the drug (FIG. 4). […] This fact was confirmed by examining both the plasma and urine concentrations of ASA and of the urinary metabolites of thromboxane after 7 days of administration (FIG. 5).

Where two headings read alike, the source gives them in different places.

For the compound `CC(=O)Oc1ccccc1C(=O)O` [ASA n.m., acetylsalicylic acid], the Ulcer index worked out at 36.12 ± 4.2 in data set [1] (listed as NM-ASA) and 36.12±4.2 in data set [1] (listed as non-micronized ASA). Moreover, the “histopathological damage of the gastric mucosa” value in data set [1] (periodic acid Schiff/Alcian blue staining) is listed as “degeneration of cells of the gastric mucosa”. The highest concentration (Cmax) came out at 269 ± 85.4 ng/mL in data set [2] (ASA 50 mg oral), 314 ± 89.5 ng/mL in data set [2] (ASA 50 mg sublingual), 460 ± 73.2 ng/mL in data set [2] (ASA 100 mg oral) and 543 ± 68.3 ng/mL in data set [2] (ASA 100 mg sublingual). The figures for the AUC(0-t) in data set [2] (ASA 50 mg oral) and in data set [2] (ASA 50 mg sublingual) were 532 ± 123 ng·h/mL and 675 ± 75.6 ng·h/mL, respectively.
On to `CC(=O)[O][Pt]([NH2])([Cl])([Cl])([NH]C1CCCCC1)[O]C(C)=O` [JM216, bis-acetato-ammine-dichloro-cyclohexylamine-platinum (IV)], for which the water solubility entry in data set [3] is recorded as “greater water solubility”.
For collagen, the “effects of collagen on its own” value in data set [4] was “no significant effects”.
